# How the values were obtained:
# [1] = test system: giant foxtail; experiment: Test C pre-/postemergence herbicide test; type: in vivo, Setaria faberi
# Summary of the method: (§1)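 Visual ratings on a 0–100 scale (100 = complete control) made versus untreated controls after 12 to 14 greenhouse days. Test chemicals, formulated in surfactant-containing non-phytotoxic solvent, applied preemergence to planted seeds or postemergence to 1- to 4-leaf plants (2 to 18 cm).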
# [2] = test system: morningglory; experiment: Test A pre-/postemergence herbicide test; type: in vivo, Ipomoea spp.
# Summary of the method: (§2)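 Visual injury scores on a 0–100 scale (100 = complete control) taken about ten days post-treatment in greenhouse against untreated controls; dash means no result. Treatments: preemergence soil spray and postemergence spray to runoff on one- to two-leaf plants 2 to 10 cm tall, surfactant-containing formulation.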
# [3] = test system: corn; experiment: Test C pre-/postemergence herbicide test; type: in vivo, Zea mays
# Summary of the method: as §1
# [4] = test system: Surinam grass; experiment: Test C pre-/postemergence herbicide test; type: in vivo, Urochloa decumbens
# Summary of the method: as §1
# [5] = test system: common (oilseed) sunflower; experiment: Test C pre-/postemergence herbicide test; type: in vivo, Helianthus annuus; conditions: preemergence
# Summary of the method: as §1
# [6] = test system: yellow nutsedge; experiment: Test C pre-/postemergence herbicide test; type: in vivo, Cyperus esculentus
# Summary of the method: as §1
# [7] = test system: velvetleaf; experiment: Test A pre-/postemergence herbicide test; type: in vivo, Abutilon theophrasti
# Summary of the method: as §2
# [8] = test system: woolly cupgrass; experiment: Test C pre-/postemergence herbicide test; type: in vivo, Eriochloa villosa
# Summary of the method: as §1
# [9] = test system: lambsquarters; experiment: Test C pre-/postemergence herbicide test; type: in vivo, Chenopodium album
# Summary of the method: as §1
# [10] = test system: morningglory; experiment: Test C pre-/postemergence herbicide test; type: in vivo, Ipomoea coccinea; design: key to Plant response rating, Morningglory: 0 = no effect, 100 = complete control
# Summary of the method: as §1
# [11] = test system: smallflower umbrella sedge; experiment: Test C flooded paddy test; type: in vivo, Cyperus difformis
# [12] = test system: rice; experiment: Test C flooded paddy test; type: in vivo, Oryza sativa
# Summary of the method: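 Postemergence sprays applied to plants 2 to 18 cm tall (1- to 4-leaf stage); paddy species grown to 2-leaf stage under flooding. After 12 to 14 days in greenhouse, visual rating versus untreated controls on 0–100 scale (0 no effect, 100 complete control).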
# [13] = test system: ducksalad; experiment: Test C flooded paddy test; type: in vivo, Heteranthera limosa
# [14] = 31 g ai/ha, preemergence, scale 0 to 100
# [15] = 125 g ai/ha, scale 0 (no effect) to 100 (complete control), visual, 12 to 14 days, preemergence
# [16] = 250 g ai/ha, scale 0 to 100 (0 no effect, 100 complete control), visual, 12 to 14 days, preemergence
# [17] = Postemergence, 250 g ai/ha, scale 0 to 100, 0 no effect, 100 complete control
# [18] = postemergence, 62 g ai/ha, scale 0 to 100
# [19] = Postemergence, 500 g ai/ha, 0 to 100 scale, 0 no effect, 100 complete control
# [20] = Postemergence, 2000 g ai/ha, 0 to 100 scale, 0 no effect, 100 complete control
# [21] = Preemergence, 500 g ai/ha, visual rating, 0 to 100 scale (0 no effect, 100 complete control)
# [22] = Preemergence, 2000 g ai/ha, visual rating, 0 to 100 scale (0 no effect, 100 complete control)
# [23] = postemergence, 125 g ai/ha, scale 0 to 100
# [24] = 62 g ai/ha, preemergence, scale 0 to 100
# [25] = 250 g ai/ha, scale 0-100, preemergence
# [26] = 500 g ai/ha, scale 0 to 100 (0 no effect, 100 complete control), visual, 12 to 14 days, preemergence
# [27] = 125 g ai/ha, scale 0 to 100 (0 no effect, 100 complete control)
# [28] = 250 g ai/ha, scale of 0 to 100, 0 is no effect, 100 is complete control
# [29] = 500 g ai/ha, visual rating after 12 to 14 days, scale 0 to 100 (0 no effect, 100 complete control)
smiles,measurement,setting,value
C=Cn1nc(C(C)(C)C)cc1C(=O)Nc1cccc(C(C)=NO)c1 [Compound 114],"Plant response rating, Foxtail, Giant",[1]; [14],20
same,"Plant response rating (0 = no effect, 100 = complete control), Foxtail, Giant","[1]; 62 g ai/ha, preemergence",20
same,"Plant response rating, Foxtail, Giant",[1]; [15],30
same,"Plant response rating, Foxtail, Giant",[1]; [16],40
same,"Plant response rating, Foxtail, Giant",[1]; [17],10
same,"Plant response rating, Foxtail, Giant",[1]; [18],10
same,Morningglory plant response rating,[2]; [19],10
same,"Plant response rating, Morningglory",[2]; [20],25
same,Morningglory plant response rating,[2]; [21],35
same,Morningglory plant response rating,[2]; [22],70
same,"Plant response rating, Corn",[3]; [14],10
same,"Plant response rating (0 = no effect, 100 = complete control), Corn","[3]; 62 g ai/ha, preemergence",10
same,"Plant response rating, Corn",[3]; [15],10
same,"Plant response rating, Corn",[3]; [16],10
same,"Plant response rating, Corn",[3]; [17],40
same,"Plant response rating, Corn",[3]; [23],30
same,"Plant response rating, Corn",[3]; [18],30
same,"Plant response rating, Surinam Grass",[4]; [14],10
same,"Plant response rating (0 = no effect, 100 = complete control), Surinam Grass","[4]; 62 g ai/ha, preemergence",10
same,"Plant response rating, Surinam Grass",[4]; [15],10
same,"Plant response rating, Surinam Grass",[4]; [17],20
same,"Plant response rating, Surinam Grass",[4]; [23],10
same,"Plant response rating, Surinam Grass",[4]; [18],10
same,"Plant response rating, Sunflower","[5]; 31 g ai/ha, scale 0 to 100",30
same,"Plant response rating (0 = no effect, 100 = complete control), Sunflower",[5]; 62 g ai/ha,30
same,"Plant response rating, Sunflower","[5]; 125 g ai/ha, scale 0 (no effect) to 100 (complete control), visual, 12 to 14 days",30
same,"Plant response rating, Nutsedge, Yellow",[6]; [14],0
same,"Plant response rating (0 = no effect, 100 = complete control), Nutsedge, Yellow","[6]; 62 g ai/ha, preemergence",0
same,"Plant response rating, Nutsedge, Yellow",[6]; [15],0
same,"Plant response rating, Nutsedge, Yellow",[6]; [17],10
same,"Plant response rating, Nutsedge, Yellow",[6]; [23],0
same,"Plant response rating, Nutsedge, Yellow",[6]; [18],0
same,Velvetleaf plant response rating,[7]; [19],20
same,"Plant response rating, Velvetleaf",[7]; [20],20
same,Velvetleaf plant response rating,[7]; [21],35
same,Velvetleaf plant response rating,[7]; [22],60
same,"Plant response rating, Cupgrass, Woolly",[8]; [14],0
same,"Plant response rating, Cupgrass, Woolly",[8]; [15],10
same,"Plant response rating, Cupgrass, Woolly",[8]; [16],30
same,"Plant response rating, Cupgrass, Woolly",[8]; [17],70
same,"Plant response rating, Cupgrass, Woolly",[8]; [23],70
same,"Plant response rating, Cupgrass, Woolly",[8]; [18],70
same,"Plant response rating, Lambsquarters",[9]; [14],40
same,"Plant response rating (0 = no effect, 100 = complete control), Lambsquarters","[9]; 62 g ai/ha, preemergence",80
same,"Plant response rating, Lambsquarters",[9]; [15],100
same,"Plant response rating, Lambsquarters",[9]; [17],100
same,"Plant response rating, Lambsquarters",[9]; [23],90
same,"Plant response rating, Lambsquarters",[9]; [18],90
same,"Plant response rating, Morningglory",[10]; [14],40
same,"Plant response rating, Morningglory",[10]; [15],60
same,"Plant response rating, Morningglory",[10]; [23],30
same,"Plant response rating, Morningglory",[10]; [18],10
CCc1nn(C(C)(C)C)nc1C(=S)Nc1cccc(C(=S)N(C)C)c1 [Compound 396],"Plant response rating, Foxtail, Giant",[1]; [24],95
same,"Plant response rating (0 = no effect, 100 = complete control), Foxtail, Giant","[1]; 125 g ai/ha, preemergence",100
same,"Plant response rating, Foxtail, Giant",[1]; [25],100
same,"Plant response rating, Foxtail, Giant",[1]; [26],100
same,"Plant response rating, Corn",[3]; [24],0
same,"Plant response rating (0 = no effect, 100 = complete control), Corn","[3]; 125 g ai/ha, preemergence",30
same,"Plant response rating, Corn",[3]; [25],60
same,"Plant response rating, Corn",[3]; [26],80
same,"Plant response rating, Surinam Grass",[4]; [24],65
same,"Plant response rating (0 = no effect, 100 = complete control), Surinam Grass","[4]; 125 g ai/ha, preemergence",95
same,"Plant response rating, Surinam Grass",[4]; [25],100
same,"Plant response rating, Surinam Grass",[4]; [26],100
same,"Sedge, Umbrella plant response rating","[11]; 62 g ai/ha, scale 0 to 100",70
same,"Sedge, Umbrella plant response rating",[11]; [27],75
same,"Sedge, Umbrella plant response rating",[11]; [28],85
same,"Plant response rating, Sedge, Umbrella",[11]; [29],90
same,"Plant response rating, Sunflower","[5]; 62 g ai/ha, scale 0 to 100",0
same,"Plant response rating (0 = no effect, 100 = complete control), Sunflower",[5]; 125 g ai/ha,0
same,"Plant response rating, Sunflower","[5]; 250 g ai/ha, scale 0-100",0
same,"Plant response rating, Sunflower","[5]; 500 g ai/ha, scale 0 to 100 (0 no effect, 100 complete control), visual, 12 to 14 days",15
same,Rice plant response rating,"[12]; 62 g ai/ha, scale 0 to 100",60
same,Rice plant response rating,[12]; [27],70
same,Rice plant response rating,[12]; [28],75
same,"Plant response rating, Rice",[12]; [29],80
same,"Plant response rating, Nutsedge, Yellow",[6]; [24],0
same,"Plant response rating (0 = no effect, 100 = complete control), Nutsedge, Yellow","[6]; 125 g ai/ha, preemergence",25
same,"Plant response rating, Nutsedge, Yellow",[6]; [25],45
same,"Plant response rating, Nutsedge, Yellow",[6]; [26],80
same,Ducksalad plant response rating,"[13]; 62 g ai/ha, scale 0 to 100",0
same,Ducksalad plant response rating,[13]; [27],0
same,Ducksalad plant response rating,[13]; [28],65
same,"Plant response rating, Ducksalad",[13]; [29],75
same,"Plant response rating, Cupgrass, Woolly",[8]; [24],60
same,"Plant response rating (0 = no effect, 100 = complete control), Cupgrass, Woolly","[8]; 125 g ai/ha, preemergence",90
same,"Plant response rating, Cupgrass, Woolly",[8]; [25],100
same,"Plant response rating, Cupgrass, Woolly",[8]; [26],100
same,"Plant response rating, Lambsquarters",[9]; [24],100
same,"Plant response rating (0 = no effect, 100 = complete control), Lambsquarters","[9]; 125 g ai/ha, preemergence",100
same,"Plant response rating, Lambsquarters",[9]; [25],100
same,"Plant response rating, Lambsquarters",[9]; [26],100
same,"Plant response rating, Morningglory",[10]; [24],0
same,"Plant response rating (0 = no effect, 100 = complete control), Morningglory","[10]; 125 g ai/ha, preemergence",0
same,"Plant response rating, Morningglory",[10]; [25],25
same,"Plant response rating, Morningglory",[10]; [26],70
